Tests used:
[1] = tested on: sheep body lice (Bovicola ovis); assay: Persistency determination, lice challenge of treated lice free Merino sheep with 5 months wool growth; type: in vivo; details: 3.0 mg/kg s.c., Day 21-28 challenge, counts 7, 14, 21, 42 and 84 days post-challenge
Procedure: In this study the persistent efficacy of fluralaner when administered once subcutaneously at doses of 1.0, 2.0 and 3.0 mg/kg body weight against sheep body lice (Bovicola ovis) infestation on Merino sheep with 5 months wool growth was evaluated.
Fluralaner was administered to sheep in three groups each at 1.0, 2.0 and 3.0 mg fluralaner/kg bodyweight. The dose was administered subcutaneously. Three groups were left untreated as negative control groups.
From Day 21-28, 49-56 and Day 77-84 post-treatment one group of untreated negative control sheep and one group of sheep treated at 1.0, 2.0 and 3.0 mg/kg were challenged with lice by close confinement with lice infested sheep and manual transfer of lice. Following the challenges lice counts were conducted 7, 14, 21, 42 and 84 days±1-day post-challenge (not all counts conducted for all challenges).

[2] = tested on: biting/chewing lice (Bovicola bovis); assay: Biting lice efficacy study in cattle, natural infestation, single subcutaneous injection; type: in vivo; details: 1 mg/kg s.c.
Procedure: (§1) This study determined the efficacy (via reductions in total lice counts) of fluralaner in an injectable suspension formulation against natural infestations of cattle sucking (Haematopinus eurysternus, Linognathus vituli) and biting/chewing lice (Bovicola bovis) when applied at a single dose to young, lice infested cattle. Treatment efficacy was determined by whole body lice counts post treatment and comparison of treated and untreated (placebo) group mean lice counts. The naturally acquired louse infestations consisted of 2 species of sucking lice (Haematopinus eurysternus and Linognathus vituli) and the biting louse Bovicola bovis. Each animal was examined in a cattle crush prior to being selected from the parent mob to ensure that more than 30 sucking lice (combined total of both sucking lice species) were present. Fluralaner at a dose level of 1.0 mg/kg bw and Control Product were administered to cattle by subcutaneous injection. The numbers of live adults and live nymphs for each species of lice on each animal were counted at 7-day intervals starting with pre-treatment counts on Day −1 and post-treatment on Days 7, 14, 21, 28, 35, 42, 49 and 56.

[3] = tested on: cattle sucking lice (Haematopinus eurysternus, Linognathus vituli); assay: Sucking lice efficacy study in cattle, natural infestation, single subcutaneous injection; type: in vivo; details: 1 mg/kg s.c.
Procedure: as §1

[4] = tested on: sheep body lice (Bovicola ovis), diazinon resistant; assay: Off-shears/short wool lice efficacy study, single subcutaneous dose, Merino sheep; type: in vivo; details: for Sheep Body Lice Efficacy Based on Geometric Means Day 7: Day 7 post-treatment; for Sheep Body Lice Efficacy Based on Geometric Means Day 14: Day 14 post-treatment; for Sheep Body Lice Efficacy Based on Geometric Means Day 21: Day 21 post-treatment; for Sheep Body Lice Efficacy Based on Geometric Means Day 41/42: Day 41/42 post-treatment; for Sheep Body Lice Efficacy Based on Geometric Means Day 84: Day 84 post-treatment; for Sheep Body Lice Efficacy Based on Geometric Means Day 140: Day 140 post-treatment
Procedure: In this study the efficacy of fluralaner when administered once subcutaneously at doses of 1 and 2 mg/kg body weight within 1 week prior to shearing, within 24 hours after shearing and 6 weeks after shearing against sheep body lice (Bovicola ovis) infestation on Merino sheep was evaluated.
Fluralaner was administered to sheep in Groups 2 and 3 seven days pre-shearing, Groups 4 and 5 within 24 hours after shearing and Groups 6 and 7 forty-two days post-shearing at either 1 mg/kg (Group 2, 4 and 6) or 2 mg/kg (Group 3, 5 and 7). Group 1 was left untreated as a negative control. All sheep were shorn on Day 0.
Lice counts were conducted on all sheep on Day −8 to −7 for allocation. Pre-treatment lice counts were conducted on Groups 2 and 3 on Day −8 to −7 (i.e. allocation counts), on Group 4 and 5 on Day −1 (pre-shearing) and on Group 6 and 7 on Day 41 (post-shearing). Post-treatment lice counts were conducted 7, 14, 21, 42, 84 and 140 days±1-day post-treatment. Group 1 was counted on each day that a lice count was conducted on a treated group for comparison purposes. Lice counts were performed as described in Example 1.

[5] = tested on: sheep body lice (Bovicola ovis), benzoyl phenyl urea (IGR) resistant; assay: Efficacy long wool lice study, single subcutaneous injection, Merino ewes with 7 months wool growth; details: for Geometric efficacy (%) Day 7 / Geometric efficacy (%) Day 14 / Geometric efficacy (%) Day 21 / Geometric efficacy (%) Day 42 / Geometric efficacy (%) Day 84 / Geometric efficacy (%) Day 140: long wool sheep, Henderson-Tilton
[6] = 1 mg/kg s.c., treated 7 days pre-shearing
[7] = 1 mg/kg s.c., treated 42 days post-shearing
[8] = 1 mg/kg s.c., treated within 24 hours after shearing
[9] = 2 mg/kg s.c., treated 7 days pre-shearing
[10] = 2 mg/kg s.c., treated 42 days post-shearing
[11] = 2 mg/kg s.c., treated within 24 hours after shearing

SMILES: Cc1cc(C2=NOC(c3cc(Cl)cc(Cl)c3)(C(F)(F)F)C2)ccc1C(=O)NCC(=O)NCC(F)(F)F (stereo not shown) [Fluralaner, 4-[5-(3,5-dichlorophenyl)-5-trifluoromethyl-4,5-dihydroisoxazol-3-yl]-2-methyl-N-[(2,2,2-trifluoro-ethylcarbamoyl)-methyl]-benzamide]
- lice or viable lice eggs found after challenge [1]: No lice or viable lice eggs were found
- efficacy against the biting lice B. bovis ([2]; Day 7): 91.74%
- efficacy against the biting lice B. bovis ([2]; by Day 14): 100%
- lice found on treated cattle ([2]; from Day 21 until Day 56): no lice of any species found
- efficacy (based on Arithmetic Means) against the sucking lice ([3]; Day 7): 97.69%
- efficacy (based on Arithmetic Means) against the sucking lice ([3]; Day 14): 99.89%
- lice found on treated cattle ([3]; from Day 21 until Day 56): no lice of any species found
- Sheep Body Lice Efficacy Based on Geometric Means Day 7 [4, 6]: 93.9%
- Sheep Body Lice Efficacy Based on Geometric Means Day 14 [4, 6]: 97.7%
- Sheep Body Lice Efficacy Based on Geometric Means Day 21 [4, 6]: 99.7%
- Sheep Body Lice Efficacy Based on Geometric Means Day 41/42 [4, 6]: 100.0%
- Sheep Body Lice Efficacy Based on Geometric Means Day 84 [4, 6]: 100.0%
- Sheep Body Lice Efficacy Based on Geometric Means Day 140 [4, 6]: 100.0%
- Sheep Body Lice Efficacy Based on Geometric Means Day 7 [4, 7]: 94.4%
- Sheep Body Lice Efficacy Based on Geometric Means Day 14 [4, 7]: 99.5%
- Sheep Body Lice Efficacy Based on Geometric Means Day 21 [4, 7]: 100.0%
- Sheep Body Lice Efficacy Based on Geometric Means Day 41/42 [4, 7]: 100.0%
- Sheep Body Lice Efficacy Based on Geometric Means Day 84 [4, 7]: 100.0%
- Sheep Body Lice Efficacy Based on Geometric Means Day 140 [4, 7]: 100.0%
- Sheep Body Lice Efficacy Based on Geometric Means Day 7 [4, 8]: 39.5%
- Sheep Body Lice Efficacy Based on Geometric Means Day 14 [4, 8]: 83.1%
- Sheep Body Lice Efficacy Based on Geometric Means Day 21 [4, 8]: 98.8%
- Sheep Body Lice Efficacy Based on Geometric Means Day 41/42 [4, 8]: 99.9%
- Sheep Body Lice Efficacy Based on Geometric Means Day 84 [4, 8]: 100.0%
- Sheep Body Lice Efficacy Based on Geometric Means Day 140 [4, 8]: 100.0%
- time until efficacy reached the required level (no lice detected) ([4]; 2.0 mg/kg dose rate, all wool lengths except off-shears): ≤ 14 days post-treatment
- Sheep Body Lice Efficacy Based on Geometric Means Day 7 [4, 9]: 96.7%
- Sheep Body Lice Efficacy Based on Geometric Means Day 14 [4, 9]: 100.0%
- Sheep Body Lice Efficacy Based on Geometric Means Day 21 [4, 9]: 100.0%
- Sheep Body Lice Efficacy Based on Geometric Means Day 41/42 [4, 9]: 100.0%
- Sheep Body Lice Efficacy Based on Geometric Means Day 84 [4, 9]: 100.0%
- Sheep Body Lice Efficacy Based on Geometric Means Day 140 [4, 9]: 100.0%
- Sheep Body Lice Efficacy Based on Geometric Means Day 7 [4, 10]: 96.8%
- Sheep Body Lice Efficacy Based on Geometric Means Day 14 [4, 10]: 100.0%
- Sheep Body Lice Efficacy Based on Geometric Means Day 21 [4, 10]: 100.0%
- Sheep Body Lice Efficacy Based on Geometric Means Day 41/42 [4, 10]: 100.0%
- Sheep Body Lice Efficacy Based on Geometric Means Day 84 [4, 10]: 100.0%
- Sheep Body Lice Efficacy Based on Geometric Means Day 140 [4, 10]: 100.0%
- Sheep Body Lice Efficacy Based on Geometric Means Day 7 [4, 11]: 86.6%
- Sheep Body Lice Efficacy Based on Geometric Means Day 14 [4, 11]: 97.1%
- Sheep Body Lice Efficacy Based on Geometric Means Day 21 [4, 11]: 99.2%
- Sheep Body Lice Efficacy Based on Geometric Means Day 41/42 [4, 11]: 99.4%
- Sheep Body Lice Efficacy Based on Geometric Means Day 84 [4, 11]: 99.9%
- Sheep Body Lice Efficacy Based on Geometric Means Day 140 [4, 11]: 100.0%
- viable lice eggs ([4]; 1 and 2 mg/kg, all three treatment times, out to 140 days post-treatment): no viable lice eggs were detected
- Geometric efficacy (%) Day 7 ([5]; 1.0 mg/kg s.c. once): 99.4%
- Geometric efficacy (%) Day 14 ([5]; 1.0 mg/kg s.c. once): 99.9%
- Geometric efficacy (%) Day 21 ([5]; 1.0 mg/kg s.c. once): 100.0%
- Geometric efficacy (%) Day 42 ([5]; 1.0 mg/kg s.c. once): 100.0%
- Geometric efficacy (%) Day 84 ([5]; 1.0 mg/kg s.c. once): 100.0%
- Geometric efficacy (%) Day 140 ([5]; 1.0 mg/kg s.c. once): 100.0%
- Geometric efficacy (%) Day 7 ([5]; 2.0 mg/kg s.c. once): 99.6%
- Geometric efficacy (%) Day 14 ([5]; 2.0 mg/kg s.c. once): 100.0%
- Geometric efficacy (%) Day 21 ([5]; 2.0 mg/kg s.c. once): 100.0%
- Geometric efficacy (%) Day 42 ([5]; 2.0 mg/kg s.c. once): 100.0%
- Geometric efficacy (%) Day 84 ([5]; 2.0 mg/kg s.c. once): 100.0%
- Geometric efficacy (%) Day 140 ([5]; 2.0 mg/kg s.c. once): 100.0%
- Geometric efficacy (%) Day 7 ([5]; 3.0 mg/kg s.c. once): 99.6%
- Geometric efficacy (%) Day 14 ([5]; 3.0 mg/kg s.c. once): 100.0%
- Geometric efficacy (%) Day 21 ([5]; 3.0 mg/kg s.c. once): 100.0%
- Geometric efficacy (%) Day 42 ([5]; 3.0 mg/kg s.c. once): 100.0%
- Geometric efficacy (%) Day 84 ([5]; 3.0 mg/kg s.c. once): 100.0%
- Geometric efficacy (%) Day 140 ([5]; 3.0 mg/kg s.c. once): 100.0%
- treatment related adverse events or health problems ([5]; sheep, 1, 2 and 3 mg/kg s.c., throughout the duration of the trial): No treatment related adverse events or health problems occurred

Source: patent US20230095926A1, “PARASITE CONTROL IN RUMINANTS” (Intervet Inc., priority 2019, published 2023)
